Reference: patent US20240050406A1, “COMPOSITION COMPRISING OXIRACETAM FOR PREVENTING OR TREATING MUSCULAR DISEASE” (KSB TUGEN INC., priority 2021, published 2024)

Key:
[1] = test system: model of sarcopenia caused by aging; assay: Aging animal model, 22-month-old mice (Experimental Example 2); assay type: in vivo, C57BL/6J mice
From the text: For an experimental group in the present invention, oxiracetam having a structure of Formula 1 was purchased from Tokyo Chemical Industry (Japan; Product No. 00398, CAS RN:62613-82-5, purity: 96%) and used.
As a model of sarcopenia caused by aging, 22-month-old male C57BL/6J mice were used. Until the day of the experiment, general feed (EEGJ30060: Cargill Agri Purina, Seongnam, Korea) and water were sufficiently supplied to the experimental animals, and the animals were acclimated for 1 week under an environment of a temperature of 23±2° C., a humidity of 55±10%, and a light-dark cycle of 12 hours-12 hours and used in the experiment.
The animals were randomly divided into groups of 10 animals, such as a control (vehicle, n=10), and 30, 100, and 300 mg/kg/day oxiracetam-administered groups (n=10 per concentration). To the oxiracetam-administered group, oxiracetam was orally administered using a Zonde needle for 90 days once a day at a dose of 30, 100, or 300 mg/kg/day. During the same period, no drug was administered to the control group, and 100 μL of normal saline was orally administered at a time.
To measure grip strength, a grip strength test was performed. The maximum force presented when the forelimbs of an animal model of each group could no longer hold the rod by pulling the tail horizontally while holding the tail of the animal model and holding the rod of a device with both front paws was considered to be grip strength (N). The grip strength was measured once every 3 days, and after repeating five measurements at one time, the average value was shown. Grip strength adaptation training was performed at least three times before drug administration.
The lean body mass of the gastrocnemius muscle (GS) and the lean body mass of the tibialis anterior (TA) for each group was measured every 7 days. Specifically, animal models of each group were anesthetized using 3% isoflurane, fixed to a photographing bed and then photographed. During photographing, the respiratory rates and body temperatures of the animal models were measured with an animal monitoring system (SA Instruments, USA).
(§1) The whole body of the animal model was photographed through dual energy X-ray absorptiometry (DEXA) using iNSiGHT VET DXA (Osteosys, KR), and the lean body mass of each of the gastrocnemius muscle (GS) and the tibialis anterior (TA) was measured and calculated from the two-dimensional images of the gastrocnemius muscle (GS) and the tibialis anterior (TA) by a program using the region of interest (ROI).
At 90 days after the start of the experiment, an exercise stress test was performed. First, the experimental animals in each group were acclimatized to a treadmill machine twice before measurement (1st round: inclination 10°, 10 minutes at 5 m/min and 10 minutes at 10 m/min; 2nd round: inclination 10°, 5 minutes at 5 m/min and 15 munutes at 10 m/min). On the day of the experiment, the experimental animals were allowed to run for 20 minutes at an initial speed of 10 m/min at an inclination of 10°, and then the speed was increased by 2 m/min every 2 minutes, and then the running distance and time were measured with the end point when the experimental animal stayed for 10 seconds without running.
(§2) Statistical processing was performed using GraphPad Prism (GraphPad Software Inc., San Diego, CA, USA). The results of each repeated experiment were expressed as mean±standard error of mean, and analyzed using the analysis of variance (Tukey's test), and statistical significance was acknowledged when the P-value was 0.05 or less.

[2] = test system: animal model in which muscular atrophy is induced by dexamethasone; assay: Comparison with dementia drugs in dexamethasone muscular atrophy model (Experimental Example 5); assay type: in vivo, ICR mice
From the text: For an experimental group in the present invention, oxiracetam having a structure of Formula 1 was purchased from Tokyo Chemical Industry (Japan; Product No. 00398, CAS RN:62613-82-5, purity: 96%) and used. Mirtazapine and olanzapine were purchased from Tokyo Chemical Industry (Japan, Product Nos. M2151, 00393, purity: 96%) and used.
As experimental animals, 7-week-old male ICR mice were purchased and used. Until the day of the experiment, general feed (EEGJ30060: Cargill Agri Purina, Seongnam, Korea) and water were sufficiently supplied to the experimental animals, and the animals were acclimated for 1 week under an environment of a temperature of 23±2° C., a humidity of 55±10%, and a light-dark cycle of 12 hours-12 hours and used in the experiment.
After the acclimation period for the experimental animals, to create a muscular atrophy model, the mice were randomly divided into groups of 7 animals, such as a control (vehicle, n=7), a dexamethasone-treated group (n=7), and a drug-administered group (n=7). The groups except for the control were intraperitoneally injected dexamethasone at a dose of 10 mg/kg from day 7 to day 21 for 14 days. In the case of the drug-administered group, 7 days before the intraperitoneal administration of dexamethasone, the drug was orally administered using a Zonde needle at a dose of 30 or 10 mg/kg/day once a day for 21 days. During the same period, the control was administered no drug, and 100 μL of normal saline was orally administered at a time. To the dexamethasone-treated group (dexamethasone excipient, CMC), instead of the drug, 100 μL of a 0.5% carboxymethylcellulose (CMC) solution was administered. This is to set the effect on the excipient as a blank.
To measure grip strength, a grip strength test was performed. The maximum force presented when the forelimbs of an animal model of each group could no longer hold the rod by pulling the tail horizontally while holding the tail of the animal model and holding the rod of a device with both front paws was considered to be grip strength (N). Grip strength adaptation training was performed at least three times before drug administration. After measurement before drug administration (day 0) and on day 20 after drug administration began, grip strength variation (%) after drug administration began (day 20) with respect to that before drug administration (day 0) was calculated.
The lean body mass of the gastrocnemius muscle (GS) and the lean body mass of the tibialis anterior (TA) for each group were measured every 7 days. Specifically, animal models of each group were anesthetized using 3% isoflurane, fixed to a photographing bed and then photographed. During photographing, the respiratory rates and body temperatures of the animal models were measured with an animal monitoring system (SA Instruments, USA).
as §1, §2

[3] = Oxi 30, Oxi 100, Oxi 300 mg/kg/day oral, DEXA every 7 days, compared to control
[4] = oxiracetam 30, mirtazapine 10, olanzapine 10 mg/kg/day oral 21 days + dexamethasone, DEXA every 7 days

NC(=O)CN1CC(O)CC1=O (racemic) [oxiracetam, (RS)-2-(4-hydroxy-2-oxopyrrolidin-1-yl)acetamide]
lean body mass of the gastrocnemius muscle (GS) [1, 3]: increased rather than decreased
lean body mass of the tibialis anterior (TA) [1, 3]: increased rather than decreased
physical performance capacity (athletic ability), treadmill running distance and time ([1]; Oxi 30, Oxi 100, Oxi 300, day 90, compared to control): increased rather than decreased
physical performance capacity (athletic ability), treadmill running distance and time ([1]; Oxi 300 group (300 mg/kg/day), day 90): significantly increased
lean body mass of the gastrocnemius muscle (GS) ([1]; Oxi 300 group (300 mg/kg/day), from week 7): significantly increased
change in grip strength ([1]; oxiracetam 30, 100 and 300 mg/kg/day oral 90 days, versus control (vehicle)): suppressed and rather increased
change in grip strength ([2]; oxiracetam 30, mirtazapine 10, olanzapine 10 mg/kg/day oral 21 days + dexamethasone 10 mg/kg i.p. day 7-21): significantly recovers
lean body mass of the gastrocnemius muscle (GS) [2, 4]: significantly recovers
lean body mass of the tibialis anterior (TA) [2, 4]: significantly recovers
